Assay results as given in patent US20080132538A1, “Pharmaceutical uses for fluoroalkoxybenzylamino derivatives of nitrogen containing heterocycles” (Pfizer Inc, priority 2000, published 2008).

Test system: not given
Settings: not given
In the case of `CC(C)(C)c1ccc(OC(F)F)c(CN[C@H]2CCCN[C@H]2c2ccccc2)c1.Cl`, the melting point is reported as 263 to 264 °C (dec.). For `Cl.FC(F)Oc1ccc(OC(F)F)c(CN[C@H]2CCCN[C@H]2c2ccccc2)c1`, the melting point was 238 to 239 °C. Molecule `CC(C)c1ccc(OCC(F)(F)F)c(CN[C@H]2CCCN[C@H]2c2ccccc2)c1.Cl` has a melting point of over 280 °C. In the case of `Cc1ccc(OC(F)F)c(CN[C@H]2CCCN[C@H]2c2ccccc2)c1.Cl`, the melting point is reported as over 275 °C. With `CC(C)c1ccc(OC(F)F)c(CN[C@H]2CCCN[C@H]2c2ccccc2)c1.Cl` the melting point was 245 to 247 °C (dec.). In the case of `CC(C)Oc1ccc(OC(F)(F)F)cc1CN[C@H]1CCCN[C@H]1c1ccccc1.Cl`, the melting point is reported as 245 to 246 °C (dec.). In the case of `CC(C)(C)c1ccc(OC(F)(F)F)c(CN[C@H]2CCCN[C@H]2c2ccccc2)c1.Cl`, the melting point is reported as 262 to 264 °C. Molecule `CN(C)c1ccc(OCC(F)(F)F)c(CN[C@H]2CCCN[C@H]2c2ccccc2)c1.Cl` has a melting point of 250 to 252 °C. `Cl.FC(F)(F)Oc1ccccc1CN[C@H]1CCCN[C@H]1c1ccccc1` gave a melting point of 231 to 233 °C. `CC(=O)Nc1ccc(OCC(F)(F)F)c(CN[C@H]2CCCN[C@H]2c2ccccc2)c1.Cl` gave a melting point of over 270 °C. With `CCOc1ccc(OC(F)(F)F)cc1CN[C@H]1CCCN[C@H]1c1ccccc1.Cl` the melting point was > 275 °C (dec.).

Test system: CCR5 receptors
Settings: Proc. Nat'l. Acad. Sci., 98 (7), p3970; cited from earlier work
In the case of `COc1ccccc1CN[C@H]1C2CCN(CC2)[C@H]1C(c1ccccc1)c1ccccc1` [CP-96,345], the “effect on CCR5 receptors” value is listed as “down regulates CCR5 receptors”.
